Results on two compounds are retold here after PMC9721424, “Novel N-methylsulfonyl-indole derivatives: biological activity and COX-2/5-LOX inhibitory effect with improved gastro protective profile and reduced cardio vascular risks” (Journal of Enzyme Inhibition and Medicinal Chemistry, 2022).

Marks after values point to notes of the source that are not given here.

One data set relates to stomach mucosa. Nature of the data set: Ulcerogenic liability (ulcer index). In kind it is in vivo. To be noted: rats, 50 mg/kg dosage for three consecutive days, mean of 6 rats. On the procedure:
In this study, adult male Wister albino rats weighing 160–180 g were used. Before any experimental procedure, rats were given 14 days to acclimate. These rats were maintained in a controlled setting with food and water available. All experiments were conducted in accordance with laboratory animal care guidelines. All experimental procedures were carried out in accordance with the regulations of the Committee of Ethics for Scientific Research on Living Organisms, Faculty of Pharmacy, Nahda University, Beni-Suef (NUB). The approval number was (NUB-019–025). […] Before drug administration, rats were fasted for 18 h and then separated into four groups. The control group received a suspension of the vehicle (10% DMSO in saline was given P.O (100 mg/kg) once daily). […] Rats were given the required dose for three consecutive days. Following the last dose, the stomachs of each rat were dissected and opened via the greater curvature and rinsed with saline. For investigation, the dissected stomach was stretched with pins on a cork board. Through illuminated magnifying lenses, the stomach mucosa was examined for the existence of ulcers. Cho and Ogle’s method[45]^,[46] was used to calculate the ulcer index.

The next data set has as its system stomach. Nature of the data set: Histopathological examination of stomach. To be noted: rat, in vivo. The data set is classed as in vivo, rats. How it is done:
In brief, the stomachs of each animal group’s rat were fixed in 10% neutral buffered formalin for 48 h. The sections were then dehydrated, cleared, fixed in paraffin, sectioned ([…]), and stained with H&E stain.

The subject of data set [1] is heart function biomarkers (LDH, CK-MB, and troponin). Nature of the data set: Cardiac function biomarkers in rat serum. The data set is classed as in vivo, rats. The conditions noted are these: 50 mg/kg/day p.o. for 2 weeks, mean ± SEM. On the procedure: (§1) Eighteen rats were divided into three groups at random (6 animals in each group). The first group was given a vehicle and served as normal control. […] Ketamine (100 mg/kg) was used to anaesthetise the animals on the 15th day. Blood samples were obtained from the retro orbital, allowed to clot, centrifuged at 1000 g for 15 min, and utilised to examine heart function biomarkers (LDH, CK-MB, and troponin). The abdomen of each rat was opened, and the heart was extracted and washed in ice-cold physiological saline before being harnessed for histological investigation.

The next data set relates to heart. The data set can be described thus: Histopathological examination of the heart. In kind it is in vivo. To be noted: rats, two weeks administration, H&E stain. On the procedure: as §1
Data set [2] concerns Gram-positive bacteria, Gram-negative bacteria, and yeast fungus. The data set can be described thus: Disc diffusion antimicrobial screening, whole panel. In kind it is cell-based. To be noted: all tested Gram-positive and Gram-negative bacteria, read-out: diameters of inhibition zones. On the procedure: All compounds were screened for their antimicrobial activity at the Microbiology and Immunology Department, Faculty of Pharmacy, Beni-Suef University. The antimicrobial activity screening was carried out using the disc diffusion method, as described earlier, with some adjustments.
For each indicator microbe, a solution of half McFarland turbidity was prepared in sterile saline, followed by surface streaking of the strains on Mueller-Hinton agar with a sterile cotton swab. Then, sterile filter paper discs (5 mm diameter) preloaded with 100 µg of each compound were applied to the surface of the pre-inoculated plates. Then, the plates were chilled at 4 °C for 100 min before being incubated overnight at the proper temperature for microbial growth. Finally, the diameter of the inhibition zones around each disc was measured to evaluate the antimicrobial activity of the compounds. Ciprofloxacin was used as a standard antibacterial agent at a concentration of 20 µg/disc. Furthermore, DMSO-loaded discs were used as a negative control.
(In general: A growth-free zone around the sample is the usual read-out of agar diffusion tests.)

The conditions of data set [3]: antimicrobial and antifungal activity; cited from earlier work.

With `Cc1ccc(-c2cc(C(F)(F)F)nn2-c2ccc(S(N)(=O)=O)cc2)cc1` [Celecoxib, reference compound], the Ulcer index in the data set on stomach mucosa is recorded as 3.79^b. For the same compound, the Ulcer index with stomach mucosa (listed as celecoxib) was determined as 3.79. Besides, the stomach histopathology finding result with stomach was “multiple complete ulcers and superficial mucosal erosions with disrupted mucous layer”. For the same compound, in data set [1], the CK-MB is 0.635 ± 0.065^a ng/ml, the LDH is given as 690 ± 08^a U/L and the “Troponin I” value is 0.1500 ± 0.0420^a ng/ml. In addition, in the data set on heart, the heart histopathology finding entry is “scattered inflamed cardiac muscle fibres with vacuolar degenerated myocytes”.
The term MIC denotes the smallest concentration in the dilution series that meets the test's criterion for growth inhibition. Consider `O=C(O)c1cn(C2CC2)c2cc(N3CCNCC3)c(F)cc2c1=O` [ciprofloxacin], for which the zone of inhibition at 20 µg/disc in data set [2] lay in the range of 34 to 48 mm. In data set [3], the MIC is less than 3.90 µg/mL.
